Measurements: publication PMC12775819, “Optimizing PSMA-617-based inhibitors through charged linker modifications: Insights into structure-activity relationships” (Theranostics, 2026)
Non-standard residues stand in square brackets, D forms with d. Residues, ends and D or L forms follow the SMILES beside them. *: point of attachment. DOTA = O=C(O)CN1CCN(CC(=O)O)CCN(CC(=O)*)CCN(CC(=O)O)CC1; EuK = O=C(O)CC[C@H](NC(=O)N[C@@H](CCCCN*)C(=O)O)C(=O)O; 2Nal = N[C@@H](Cc1ccc2ccccc2c1)C(=O)O; Trx = NC[C@H]1CC[C@H](C(=O)O)CC1

What was measured:
[1] = Partition coefficient (logD), n-octanol/PBS pH 7.4; assay type: physicochemical; conditions: 68Ga-labeled compounds, mean ± SD; for logD: read-out: Partition Coefficient [logDoctanol/PBS]
Description: To determine the lipophilicity expressed as distribution coefficient (logD), a two-phase system of n-octanol (500 µl) and phosphate buffered saline (PBS) (490 µl) at pH 7.4 was used (n = 4). Compounds were radiolabeled with [^68Ga]Ga^3+ and the mixture diluted to a concentration of 0.25 µM in PBS. 10 µl of the 0.25 µM dilution were added to the n-octanol / PBS mixture. After extensive mixing, the 2-phase system was centrifuged for 10 min at 14,000 rpm and 4 °C. Two samples from each phase (100 µl) were taken and measured in a γ-gamma counter (PerkinElmer, Waltham, USA). […] The data is presented as the mean value with the standard deviation (SD).

PSMA = molecular target: T1, PSMA (Homo sapiens, UniProt Q04609); test: Competitive cell binding (IC50) against [68Ga]Ga-PSMA-10 on LNCaP cells; conditions: unlabeled precursors vs [68Ga]Ga-PSMA-10 (0.8 nM), 45 min, room temperature, ± SD
T1 construct: incubated with [^68Ga]Ga-PSMA-10 (0.8 nM) and LNCaP cells (10^5 cells/well) for 45 min at room temperature; host or cells: LNCaP (human prostate carcinoma lymph node metastasis)
Description: (§1) The PSMA-positive human cell line LNCaP (human lymph node carcinoma of the prostate; ATCC CRL-1740) was cultivated adherently at 37 °C and humidified 5% CO2 with RPMI-1640 (Thermo Fisher Scientific, Germany) supplemented with 10% fetal bovine serum (Sigma-Aldrich, Germany), 1% sodium pyruvate (Life Technologies, Germany) and 1% penicillin/[…] (Thermo Fisher Scientific, Germany). A mixture of trypsin/ethylenediaminetetraacetic acid (0.05% / 0.02%; Thermo Fisher Scientific, Germany) was used for cell harvesting (last authentication: April 2024).
To determine the binding affinity of the investigated compounds, competitive cell binding studies were performed with ^68Ga-labeled PSMA-10. Dilution series of twelve concentrations in medium were prepared from the precursor peptides PS1 - PS11 including concentrations of 0, 0.5, 1, 2.5, 5, 10, 25, 50, 100, 500, 1,000, and 5,000 nM. The assay was performed on 96-well filter plates (Merck, Darmstadt, Germany). Medium (100 µl per well) was added before the experiment and incubated for 1 h at room temperature to block non-specific binding. The medium was removed and the diluted compounds were incubated with [^68Ga]Ga-PSMA-10 (0.8 nM) and LNCaP cells (10^5 cells/well) for 45 min at room temperature (total volume 100 µl/well). Cells were washed with PBS buffer (2× 100 µl, 1× 200 µl) over a MultiScreen 96-well vacuum filtration system (Merck Millipore, Billerica, USA). The filters containing the retained cells were punched out and the radioactivity was quantified using a γ-counter. By applying a non-linear regression algorithm (GraphPad Prism 8.0.1., Boston, USA), the specific inhibitory concentration of 50% (IC50) could be determined. The experiment was repeated at least three times per compound and the data presented as IC50 ± standard deviation.

[2] = tested on: PSMA-positive LNCaP cells; test: Surface binding and internalization of 68Ga-labeled compounds; assay type: cell-based, human; conditions: for Internalization Block / Surface Binding Block / Internalization / Surface Binding: 30 nM, 45 min, 37 °C; for Internalization Block / Surface Binding Block: blocked with 2-PMPA 500 µM; for Internalization / Surface Binding: unblocked; for Specific Internalization / Specific Surface Binding: difference of unblocked and blocked values
Description: as §1
Internalization assays were performed on poly-L-lysine coated 24-well cell culture plates. The day before the experiment, LNCaP cells (10^5 cells/well) were harvested and seeded to the wells. The cells were incubated with the ^68Ga-labeled compounds (250 µl, 30 nM, diluted in RPMI medium) for 45 min at 37 °C. […] The medium was then removed and the cells washed with ice-cold PBS buffer (3 × 1 ml). To remove surface bound compounds, ice-cold glycine buffer (2 × 0.5 ml, 50 mM, pH 2.8) was added to the wells and collected after 5 min in a combined fraction. After washing once with PBS (1 ml), NaOH (0.5 ml, 0.3 M) was added to the cells for lysation. Collected surface-bound, internalized fractions and standards from the stock solutions (25 µl) were measured in a γ-counter. Data was normalized and presented as percentage of the initially added radioactivity bound to 10^5 cells [%IA/10^5 cells].

in vivo [3] = conditions: male, BALB/c nu/nu, mouse, iv, 500 pmol, total radioactivity
[4] = tested on: LNCaP xenograft-bearing BALB/c nu/nu mice; test: Static small-animal PET imaging 1 h and 2 h p.i.; conditions: 68Ga-labeled, 0.5 nmol i.v., n = 1, SD from VOIs
[5] = Static small-animal PET imaging 1 h and 2 h p.i.; conditions: male, BALB/c nu/nu, mouse, tumor / kidney, iv, 500 pmol, total radioactivity
in vivo [6] = conditions: male, BALB/c nu/nu, mouse, iv, 500 pmol, total radioactivity; remark: listed apart in the source
in vitro = in vitro ADME; conditions: mouse, serum
Description: Incubation in human and murine serum (BioIVT, United Kingdom) was used to determine the stability of the described precursors. First, the substances were labeled with [^177Lu]Lu^3+ and added to 100 µl of pre-warmed serum (0.5 nmol, 3 - 10 MBq). The reaction mixture was incubated at 37 °C and 10 µl samples were taken at regular intervals (0, 6, 24, 48, 72 h). After precipitation of the proteins by the addition of 30 µl of acetonitrile, the probes were centrifuged for 2 min at 14,000 rpm and the stability determined by analytical radio-HPLC of the […].

T1 sequence (Q04609 whole entry): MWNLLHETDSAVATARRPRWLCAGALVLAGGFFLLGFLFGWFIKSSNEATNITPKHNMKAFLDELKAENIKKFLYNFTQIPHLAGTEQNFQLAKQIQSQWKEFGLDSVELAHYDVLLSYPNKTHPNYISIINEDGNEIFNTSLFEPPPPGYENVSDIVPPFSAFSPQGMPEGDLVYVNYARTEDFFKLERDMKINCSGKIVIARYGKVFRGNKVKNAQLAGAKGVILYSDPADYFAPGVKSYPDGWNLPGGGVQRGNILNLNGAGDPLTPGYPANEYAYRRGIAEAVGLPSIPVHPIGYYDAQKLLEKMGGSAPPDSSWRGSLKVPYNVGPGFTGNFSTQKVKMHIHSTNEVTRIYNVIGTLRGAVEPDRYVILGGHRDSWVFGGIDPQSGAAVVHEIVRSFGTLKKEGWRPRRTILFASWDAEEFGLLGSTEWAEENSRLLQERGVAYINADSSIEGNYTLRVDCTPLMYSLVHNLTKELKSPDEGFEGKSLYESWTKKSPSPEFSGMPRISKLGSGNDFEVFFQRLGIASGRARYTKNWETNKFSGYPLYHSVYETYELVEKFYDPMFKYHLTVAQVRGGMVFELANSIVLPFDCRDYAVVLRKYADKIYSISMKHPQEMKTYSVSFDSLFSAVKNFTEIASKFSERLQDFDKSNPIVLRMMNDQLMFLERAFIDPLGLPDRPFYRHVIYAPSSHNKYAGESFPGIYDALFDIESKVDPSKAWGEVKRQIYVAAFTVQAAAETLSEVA

O=C(O)CC[C@H](NC(=O)N[C@@H](CCCCNC(=O)[C@H](Cc1ccc2ccccc2c1)NC(=O)[C@H]1CC[C@H](CNC(=O)[C@H](Cc2c[nH]cn2)NC(=O)[C@H](CCC(=O)O)NC(=O)[C@H](Cc2c[nH]cn2)NC(=O)[C@H](CCC(=O)O)NC(=O)[C@H](Cc2c[nH]cn2)NC(=O)[C@H](CCC(=O)O)NC(=O)CN2CCN(CC(=O)O)CCN(CC(=O)O)CCN(CC(=O)O)CC2)CC1)C(=O)O)C(=O)O [PS3, EuK-NaI-ChX-(HE)3-DOTA] ({DOTA}-EHEHEH[Trx][2Nal]-EuK)
logD [1]: -3.6 ± 0.3
IC50 (PSMA): 0.037 ± 0.0114 µM
Internalization Block [2]: 0.112 ± 0.022 %Binding / %Internalization
Surface Binding Block [2]: 0.069 ± 0.129 %Binding / %Internalization
Internalization [2]: 0.67 ± 0.14 %Binding / %Internalization
Surface Binding [2]: 1.32 ± 0.11 %Binding / %Internalization
Specific Internalization [2]: 0.56 ± 0.42 %Binding / %Internalization
Specific Surface Binding [2]: 1.26 ± 1.97 %Binding / %Internalization
SUV at 1 h (in vivo [3]; SUV kidneys): 3.05 ± 0.01 SUV
SUV at 2 h (in vivo [3]; SUV kidneys): 1.56 ± 0.13 SUV
SUV at 1 h (in vivo [3]; SUV muscle): 0.13 ± 0.03 SUV
SUV at 2 h (in vivo [3]; SUV muscle): 0.1 ± 0.01 SUV
SUV at 1 h (in vivo [3]; SUV tumor): 0.93 ± 0.08 SUV
SUV at 2 h (in vivo [3]; SUV tumor): 0.92 ± 0.06 SUV

O=C(O)CC[C@H](NC(=O)N[C@@H](CCCCNC(=O)[C@H](Cc1ccc2ccccc2c1)NC(=O)[C@H]1CC[C@H](CNC(=O)[C@H](Cc2c[nH]cn2)NC(=O)[C@H](CCC(=O)O)NC(=O)[C@H](Cc2c[nH]cn2)NC(=O)[C@H](CCC(=O)O)NC(=O)[C@H](Cc2c[nH]cn2)NC(=O)[C@H](CCC(=O)O)NC(=O)[C@H](Cc2c[nH]cn2)NC(=O)[C@H](CCC(=O)O)NC(=O)CN2CCN(CC(=O)O)CCN(CC(=O)O)CCN(CC(=O)O)CC2)CC1)C(=O)O)C(=O)O [PS5, EuK-NaI-ChX-(HE)4-DOTA] ({DOTA}-EHEHEHEH[Trx][2Nal]-EuK)
logD [1]: -3.74 ± 0.05
IC50 (PSMA): 0.0467 ± 0.0373 µM
Internalization Block [2]: 0.155 ± 0.022 %Binding / %Internalization
Surface Binding Block [2]: 0.082 ± 0.029 %Binding / %Internalization
Internalization [2]: 0.67 ± 0.06 %Binding / %Internalization
Surface Binding [2]: 1.41 ± 0.10 %Binding / %Internalization
Specific Internalization [2]: 0.51 ± 0.25 %Binding / %Internalization
Specific Surface Binding [2]: 1.33 ± 0.42 %Binding / %Internalization
SUV at 1 h (in vivo [3]; SUV kidneys): 3.13 ± 0.16 SUV
SUV at 2 h (in vivo [3]; SUV kidneys): 2.37 ± 0.27 SUV
SUV at 1 h (in vivo [3]; SUV muscle): 0.12 ± 0.02 SUV
SUV at 2 h (in vivo [3]; SUV muscle): 0.09 ± 0.02 SUV
SUV at 1 h (in vivo [3]; SUV tumor): 0.86 ± 0.06 SUV
SUV at 2 h (in vivo [3]; SUV tumor): 0.94 ± 0.07 SUV

O=C(O)CC[C@H](NC(=O)N[C@@H](CCCCNC(=O)[C@H](Cc1ccc2ccccc2c1)NC(=O)[C@H]1CC[C@H](CNC(=O)CN2CCN(CC(=O)O)CCN(CC(=O)O)CCN(CC(=O)O)CC2)CC1)C(=O)O)C(=O)O [PSMA-617, EuK-NaI-ChX-DOTA]
Partition Coefficient [logDoctanol/PBS] [1]: -2.7 ± 0.2
IC50 (PSMA): 0.0218 ± 0.00313 µM
Internalization Block [2]: 0.210 ± 0.036 %Binding / %Internalization
Surface Binding Block [2]: 0.062 ± 0.013 %Binding / %Internalization
Internalization [2]: 0.50 ± 0.05 %Binding / %Internalization
Surface Binding [2]: 0.79 ± 0.13 %Binding / %Internalization
Specific Internalization [2]: 0.28 ± 0.27 %Binding / %Internalization
Specific Surface Binding [2]: 0.72 ± 0.38 %Binding / %Internalization
SUV kidneys ([4]; static PET 1 h p.i.): 1.25 ± 0.14 g/mL
SUV muscle ([4]; static PET 1 h p.i.): 0.073 ± 0.004 g/mL
SUV tumor ([4]; static PET 1 h p.i.): 0.63 ± 0.02 g/mL
SUV kidneys ([4]; static PET 2 h p.i.): 0.28 ± 0.06 g/mL
SUV muscle ([4]; static PET 2 h p.i.): 0.02 ± 0.01 g/mL
SUV tumor ([4]; static PET 2 h p.i.): 0.52 ± 0.16 g/mL

O=C(O)CC[C@H](NC(=O)N[C@@H](CCCCNC(=O)[C@H](Cc1ccc2ccccc2c1)NC(=O)[C@H](Cc1c[nH]cn1)NC(=O)[C@H](CCC(=O)O)NC(=O)[C@H](Cc1c[nH]cn1)NC(=O)[C@H](CCC(=O)O)NC(=O)[C@H](Cc1c[nH]cn1)NC(=O)[C@H](CCC(=O)O)NC(=O)[C@H]1CC[C@H](CNC(=O)CN2CCN(CC(=O)O)CCN(CC(=O)O)CCN(CC(=O)O)CC2)CC1)C(=O)O)C(=O)O [[^68Ga]Ga-PS2, metal not drawn] ({DOTA-Trx}-EHEHEH[2Nal]-EuK)
tissue to tissue ratio at 1 h [5]: 0.47 ± 0.14
tissue to tissue ratio at 2 h [5]: 0.73 ± 0.14

O=C(O)CC[C@H](NC(=O)N[C@@H](CCCCNC(=O)[C@H](Cc1ccc2ccccc2c1)NC(=O)[C@H]1CC[C@H](CNC(=O)[C@H](CCC(=O)O)NC(=O)[C@H](CCC(=O)O)NC(=O)[C@H](CCC(=O)O)NC(=O)CN2CCN(CC(=O)O)CCN(CC(=O)O)CCN(CC(=O)O)CC2)CC1)C(=O)O)C(=O)O [[^68Ga]Ga-PS8, metal not drawn] ({DOTA}-EEE[Trx][2Nal]-EuK)
SUV at 1 h (in vivo [6]): 1.17 SUV
tissue to tissue ratio at 1 h (in vivo [3]): 16.2 ± 0.27

O=C(O)CC[C@H](NC(=O)N[C@@H](CCCCNC(=O)[C@H](Cc1ccc2ccccc2c1)NC(=O)[C@H]1CC[C@H](CNC(=O)[C@H](Cc2c[nH]cn2)NC(=O)[C@H](Cc2c[nH]cn2)NC(=O)[C@H](Cc2c[nH]cn2)NC(=O)CN2CCN(CC(=O)O)CCN(CC(=O)O)CCN(CC(=O)O)CC2)CC1)C(=O)O)C(=O)O [[^68Ga]Ga-PS11, metal not drawn] ({DOTA}-HHH[Trx][2Nal]-EuK)
tissue to tissue ratio at 1 h (in vivo [6]): 0.633
tissue to tissue ratio at 1 h (in vivo [3]): 0.66 ± 0.15
tissue to tissue ratio at 2 h (in vivo [3]): 1.15 ± 0.27

O=C(O)CC[C@H](NC(=O)N[C@@H](CCCCNC(=O)[C@H](Cc1c[nH]cn1)NC(=O)[C@H](Cc1c[nH]cn1)NC(=O)[C@H](Cc1c[nH]cn1)NC(=O)[C@H](Cc1ccc2ccccc2c1)NC(=O)[C@H]1CC[C@H](CNC(=O)CN2CCN(CC(=O)O)CCN(CC(=O)O)CCN(CC(=O)O)CC2)CC1)C(=O)O)C(=O)O [[^177Lu]Lu-PS9, metal not drawn] ({DOTA-Trx}-[2Nal]HHH-EuK)
metabolised at 24 h, 5 µM (in vitro): ~40%

O=C(O)CC[C@H](NC(=O)N[C@@H](CCCCNC(=O)[C@H](Cc1ccc2ccccc2c1)NC(=O)[C@H](Cc1c[nH]cn1)NC(=O)[C@H](Cc1c[nH]cn1)NC(=O)[C@H](Cc1c[nH]cn1)NC(=O)[C@H]1CC[C@H](CNC(=O)CN2CCN(CC(=O)O)CCN(CC(=O)O)CCN(CC(=O)O)CC2)CC1)C(=O)O)C(=O)O [[^177Lu]Lu-PS10, metal not drawn] ({DOTA-Trx}-HHH[2Nal]-EuK)
remaining at 48 h, 5 µM (in vitro): 64%
